Measured values as given in article PMC6950057, “Toxicity, Pharmacokinetics, and Gut Microbiome of Oral Administration of Sesterterpene MHO7 Derived from a Marine Fungus” (Marine Drugs, 2019).
Read-outs that look alike come from different tables or passages of the source.

Key:
[1] = Log P by shaking flask method (n-octanol/water); assay type: physicochemical
Protocol: An HPLC system (Shimadzu, Japan) was equipped with a LC-20AD binary pump system, a SIL-20AD auto sampler, a CBM-20A system controller, and a CTO-20A oven. Separation of MHO7 and IS from endogenous substances was carried out on an Agilent Zorbax XDB C18 column (5 μm, 250 × 4.6 mm, Agilent, Pal Alto, CA, USA), which was kept at 30 °C. The mobile phase was composed of 30% phase A (water) and 70% phase B (acetonitrile) with a flow rate of 1 mL·min^−1. The inject volume of the sample solution was 10 μL.
The phases of distilled water and n-octanol were saturated with each other by shaking for 48 h with 250 rpm in a shaking water bath prior to use. Solutions of MHO7 was prepared in concentration of 10 mM·L^−1 in n-octanol. Accurately measured amounts of the two solvents with necessary quantity of MHO7 were placed in a 5.0 mL centrifuge tube; then, the mixture was carried out at 250 rpm and designated temperature in the shaking water bath for 48 h to afford complete phase separation. The samples of both phases were collected at 0, 4, 8, 12, 24, 30, 36 and 48 h, diluted with methanol (1:1, V) and determined by HPLC with the detection wavelength of 234 nm. Each set of solvent systems for experimental logP/D value was the mean of the three determinations.

[2] = system: KM mice; test: Acute toxicity / maximum tolerated dose, oral; assay type: in vivo; parameters: Body weight / Heart weight / Liver weight / spleen weight / lung weight / kidney weight / Reproductive organs weight / brain weight: unit not given here; settings: for Body weight / Heart weight / Liver weight / Reproductive organs weight / brain weight / kidney weight / lung weight / spleen weight: 2400 mg/kg
Protocol: (§1) Male and female KM mice of 8–10 weeks of age (20–22 g) were used in acute toxicity experiment and only female KM mice were subjected in other animal experiments. All mice were purchased from the Vital River Laboratory Animal Technology Co. Ltd. (Beijing, China). The mice were bred in a standard environment (23 ± 1 °C; humidity of 60 ± 5%) with a 12-h light/dark cycle and food and water were provided ad libitum. All animal protocols were approved by the Animal Care and Use Committee of Wuhan University Center for Animal Experiment ABSL-Ⅲ Laboratory and complied with the Guide for the Care and Use of Laboratory Animals (NIH publication, 8th edition, 2011). In total, 130 mice were used for in vivo studies under the ethical approved protocols.
(§2) Male and female KM mice of 8–10 weeks of age (20–22 g) were used in acute toxicity experiment. After animals were acclimatized for 1 week, 20 female and 20 male mice were randomly and evenly divided into four groups. The mice of acute toxicity experiment were fasted overnight and administered by the oral dose of MHO7 (2400 mg·kg^−1, bw) diluted in corn oil the next morning. Then, mice were placed with free access to chow and water. […] The number surviving and their behaviors was also recorded every day.

[3] = Acute toxicity / maximum tolerated dose, oral; assay type: in vivo, mice; parameters: Body weight / Heart weight / Liver weight / spleen weight / lung weight / kidney weight / Reproductive organs weight / brain weight: unit not given here; settings: both sexes, mouse, in vivo, 2400 mg·kg^−1; oral administration, male and female KM mice; read-out: maximum tolerable dose (MTD)
Protocol: as §1, §2

[4] = Stability in simulated gastric fluid (SGF); assay type: in vitro ADME; settings: for percentage concentration remaining in SGF: at 8 h
Protocol: (§3) SGF was prepared with modifications according to Lee et al. (2012) by mixing 100 mL of distilled water with a pH value set to 2.0 with hydrochloric acid and 1 g pepsin solution (800–2000 U/mg of protein). SIF was produced according to USP specifications (Test Solutions, United States Pharmacopeia 35, NF 30, 2012). Monobasic potassium phosphate (0.68 g) was dissolved in 25 mL of water. Then, 7.7 mL of 0.2 M NaOH was added to adjust the pH to 6.8. To this, 1 g of pancreatin was added and shaken gently until dissolved and the volume adjusted to 100 mL with water. Pancreatin was added after adjusting the pH of the solution to 6.8 to avoid precipitation of the enzyme.
(§4) Aliquots (199 µL) of SGF and SIF were placed in 1.5 mL microcentrifuge tubes and incubated at 37 °C for 10 min in a water bath, respectively. Different concentrations of MHO7 (1 µL) were added to each of the above microcentrifuge tubes to start the reaction with being incubated at 37 °C at 250 rpm in a shaking water bath. The reaction was stopped by adding ice ACN (800 µL) to each tube at intervals of 0, 0.5, 1, 2, 4, 6, and 8 h. The samples were vortexed for 15 min and centrifuged at 4 °C and 15,000 rpm for 15 min. After centrifuging the supernatant layer was taken directly for LC-MS analysis. Each experiment was carried out in triplicate, and average values were plotted. QC samples were prepared in the same way of inactivating pepsin in SGF incubation system at the concentrations of 1, 0.1 and 0.01 μM·L^−1 for HQC, MQC and LQC, respectively.

[5] = Stability in simulated intestinal fluid (SIF); assay type: in vitro ADME; settings: for percentage concentration remaining in SIF: at 8 h
Protocol: as §3, §4

[6] = pH 7, 37 °C, octanol/ddH2O, read-out: Log P/D Value O/W (pH 7.0)
[7] = MHO7 added at 0.05 mM·L^−1, 37 °C
[8] = initial addition 0.5 mM·L^−1, 37 °C
[9] = under the concentration of 5 mM·L^−1

## CC(C)=C/C=C/[C@H](C)[C@H]1CC[C@]2(C)C[C@@H]3C(C)=CC(=O)[C@H]3/C(C=O)=C\C[C@@H]12 [MHO7, 6-epi-ophiobolin G]
[1]; 25 °C, read-out: Log P Value
  logP at 4 h: 1.23 ± 0.02
  logP at 8 h: 1.22 ± 0.04
  logP at 12 h: 1.23 ± 0.03
  logP at 24 h: 1.23 ± 0.02
  logP at 30 h: 1.27 ± 0.15
  logP at 36 h: 1.27 ± 0.03
  logP at 48 h: 1.29 ± 0.05
[1]; [6]
  logP at 4 h: 2.55 ± 0.01
  logP at 8 h: 2.51 ± 0.04
  logP at 12 h: 2.48 ± 0.02
  logP at 24 h: 2.49 ± 0.02
  logP at 30 h: 2.47 ± 0.01
  logP at 36 h: 2.49 ± 0.03
  logP at 48 h: 2.48 ± 0.03
[2]; female mice
  Body weight: 33.30±2.1
  Heart weight: 0.15±0.01
  Liver weight: 1.49±0.09
  Reproductive organs weight: 0.21±0.05
  brain weight: 0.40±0.07
  kidney weight: 0.46±0.02
  lung weight: 0.22±0.02
  spleen weight: 0.13±0.05
[2]; male mice
  Body weight: 38.75±2.96
  Heart weight: 0.18±0.02
  Liver weight: 2.39±0.38
  Reproductive organs weight: 0.19±0.02
  brain weight: 0.42±0.06
  kidney weight: 0.58±0.06
  lung weight: 0.22±0.03
  spleen weight: 0.15±0.03
[2]; oral 2400 mg·kg^−1
  weight ranges (Table S5), treatment vs control group: no significant difference
[2]; oral 2400 mg·kg^−1, 14 days observation
  observed toxicity: No obvious toxicity was observed
[2]; oral 2400 mg·kg^−1, after seven days
  body weight, MHO7 group vs control group: no significant difference
[2]; oral 2400 mg·kg^−1, female and male mice, returned to normal within two days
  diarrhea: a small number of animals with diarrhea was found during the first day
[2]; oral administration 2400 mg·kg^−1
  tolerability: well-tolerated
[3]
  MTD at 2 weeks: 2400 mg/kg
[4]; [7]
  percentage concentration remaining in SGF: 76.19 ± 0.99%
[4]; [8]
  percentage concentration remaining in SGF: 80.2 ± 3.15%
[4]; [9]
  stability in SGF: stable
[5]; [7]
  percentage concentration remaining in SIF: 94.83 ± 1.14%
[5]; [8]
  percentage concentration remaining in SIF: 89.74 ± 0.86%
[5]; [9]
  stability in SIF: stable
